Earlier results in patent US8349557B2 (priority 2008, dated 2013).
Read-outs that look alike come from different tables or passages of the source.

How the values were obtained:
cerebellar granule cells = conditions: 24 hours
[1] = tested on: rat hepatoma cell line, H-4-II-E cells
skeletal muscle = conditions: in some patients

Row | Compound | V-ATPase activity (V-ATPase; 0.3 nM bafilomycin) | V-ATPase activity (V-ATPase; 10 nM bafilomycin) | V-ATPase activity (V-ATPase; 100 nM bafilomycin (high-dose)) | vacuoles in the cytoplasm (cerebellar granule cells; 0.3 nM bafilomycin) | vacuoles in the cytoplasm (cerebellar granule cells; 10 nM bafilomycin) | effect on macroautophagy / autophagosome formation [1] | effect on macroautophagy / autophagosome formation ([1]; non-starved cells, 100 nM bafilomycin, one hour) | degradation of long-lived proteins (lysosomes) | lysosomal pH (lysosomes) | autophagic vacuolation in skeletal muscle (skeletal muscle)
1 | CO/C1=C\C(C)=C\[C@@H](C)[C@@H](O)[C@@H](C)C/C(C)=C/C=C/[C@H](OC)[C@@H]([C@@H](C)[C@@H](O)[C@H](C)[C@@]2(O)C[C@@H](O)[C@H](C)[C@@H](C(C)C)O2)OC1=O [bafilomycin] | 40-50 % of normal | below 10% | completely eliminates V-ATPase activity | not present | accumulation of large, swollen, single-membraned vacuoles in the cytoplasm with electron-dense deposits | explosive autophagosome formations occupying vast portions of the cytoplasm | no significant effect |  |  | 
2 | CCN(CC)CCCC(C)Nc1ccnc2cc(Cl)ccc12 (stereo not shown) [chloroquine] |  |  |  |  |  |  |  | impairs the degradation of long-lived proteins | raises their pH | florid autophagic vacuolation
